# According to patent US6051406A, “Keratan sulfate 6-sulfotransferase and DNA coding for the same” (Seikagaku Kogyo Kabushiki Kaish, priority 1996, dated 2000):
# How the values were obtained:
# [1] = target: T1, partially purified KSST (KSGal6ST) (Homo sapiens, UniProt O43916); experiment: Effect of added salts and dithiothreitol on KSST activity (Reaction Mixture II); type: biochemical; parameters: made in house; host or cells: COS-7 cells transfected with pCXNKSST (pCXN2 vector); extract partially purified over DEAE-Sephadex A-50 (non-adsorbed fraction) and Heparin-Sepharose CL-6B; conditions: for Sulfotransferase activity with added salt: salt at final concentration of 5 mM instead of CaCl2, keratan sulfate receptor, Reaction Mixture II
# T1 sequence (O43916 1-411): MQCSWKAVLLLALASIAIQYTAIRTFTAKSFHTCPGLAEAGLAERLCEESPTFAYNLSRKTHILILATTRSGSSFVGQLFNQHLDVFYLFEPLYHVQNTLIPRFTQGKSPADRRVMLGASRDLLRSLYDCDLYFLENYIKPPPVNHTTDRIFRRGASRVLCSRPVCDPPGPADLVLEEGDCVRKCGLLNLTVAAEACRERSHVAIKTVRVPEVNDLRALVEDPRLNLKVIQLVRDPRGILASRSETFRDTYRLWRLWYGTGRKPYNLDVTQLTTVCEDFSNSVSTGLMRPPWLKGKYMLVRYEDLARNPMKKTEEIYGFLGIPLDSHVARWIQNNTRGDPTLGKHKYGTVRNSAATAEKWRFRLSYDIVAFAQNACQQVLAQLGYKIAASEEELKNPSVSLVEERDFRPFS
# Description: (§5) Characterization of the KSST partially purified as described above was performed.
# [2] = target: T1, partially purified KSST (KSGal6ST); conditions: read-out: Km value for PAPS (sulfate group donor)
# Description: as §5
# [3] = tested on: crude extract of COS-7 cells with pCXNKSST introduced; experiment: Sulfotransferase activity for various glycosaminoglycan receptors, crude extract (Reaction Mixture II); type: biochemical; conditions: 25 nmol glycosaminoglycan as receptor
# Description: (§1) Activity for various kinds of glycosaminoglycans as the substrate was assayed by using 25 nmol (as galactosamine for chondroitin sulfate (A and C) and dermatan sulfate, and as glucosamine for keratan sulfate and CDSNS-heparin (completely desulfated, N-sulfated heparin, available from Seikagaku Corp.)) of glycosaminoglycan instead of keratan sulfate.
# (§2) In the above both cases, the reaction mixtures were incubated at 37° C. for 20 minutes, and the reaction was stopped by immersing reaction tubes into boiling water for one minute.
# (§3) After stopping the reaction, 0.1 μmol (as glucuronic acid) of chondroitin sulfate A was added as a carrier, and 3 volumes of ethanol containing 1.3% potassium acetate was added to the reaction mixture to precipitate ^35 S-labeled polysaccharide. The reaction mixture was centrifuged at 10,000×g for 10 minutes, and the resulting precipitates were dissolved in 70 μl of water. The resulting solution (50 μl) was loaded on a desalting column equilibrated with 0.1 M NH4 HCO3, and the eluted fractions containing the ^35 S-labeled polysaccharide were collected. Scintillation cocktail (1 ml, Clearsol, Nakarai Tesque) was added to 200 μl of each of the obtained fractions, and incorporation of ^35 S into the polysaccharide was determined by assaying ^35 S-radioactivity. Activity catalyzing transfer of 1 pmol sulfate group/minute was defined as 1 unit.
# (§4) The adsorbed fraction was eluted with Buffer A containing 0.5 M NaCl, and the eluate was dialyzed against Buffer A containing 50 mM NaCl. The dialysate was used as KSST not containing CST. […] For the activity assay, 25 nmol (as galactosamine for chondroitin, chondroitin sulfate A, chondroitin sulfate C and dermatan sulfate, and as glucosamine for keratan sulfate and CDSNS-heparin) of glycosaminoglycan was used instead of the keratan sulfate contained in the standard reaction mixture.
# [4] = target: T1, partially purified KSST (KSGal6ST); experiment: Sulfotransferase activity for various glycosaminoglycan receptors, partially purified KSST (Reaction Mixture II); type: biochemical; parameters: made in house; host or cells: COS-7 cells transfected with pCXNKSST (pCXN2 vector); extract partially purified over DEAE-Sephadex A-50 (non-adsorbed fraction) and Heparin-Sepharose CL-6B; conditions: for Sulfotransferase activity, Partially purified product: 25 nmol glycosaminoglycan as receptor, Reaction Mixture II, after Heparin-Sepharose CL-6B; for sulfotransferase activity for this receptor relative to keratan sulfate sulfotransferase activity after the purification: partially purified product
# Description: as §1, §2, §3
# Homogenate of COS-7 cells with pCXNKSST introduced from 80 dishes (224 mg as protein) was applied to a DEAE-Sephadex A-50 column (Pharmacia, 2.2×13 cm) equilibrated with Buffer A. The column was washed with 500 ml of Buffer A , and then the adsorbed fraction was eluted with Buffer A containing 0.5 M NaCl.
# as §4
# [5] = tested on: sulfotransferase activity; experiment: Sulfotransferase activity of pCXNKSST-transfected COS-7 cells with other sulfate group receptors; type: cell-based; conditions: COS-7 cells with KSST cDNA in the correct direction, substance used as sulfate group receptor
# Description: This cDNA was introduced into a plasmid (pCXN2) (a recombinant plasmid where the direction of the promoter is conformed with that of the cDNA was designated as pCXNKSST, and recombinant plasmid where the cDNA was inserted in a reversed direction was designated as pCXNKSST2), and COS-7 cells were transfected with the obtained plasmids by the method described above. […] When dermatan sulfate, heparan sulfate, or completely desulfated, N-sulfated heparin (CDSNS-heparin) was used as the sulfate group receptor, no increase of sulfotransferase activity was observed.
# [6] = substrate: Nc1ncnc2c1ncn2[C@@H]1O[C@H](COP(=O)(O)OS(=O)(=O)O)[C@@H](OP(=O)(O)O)[C@H]1O; experiment: purified protein, by the assay type
molecule,measurement,setting,value
O[C@H](CS)[C@H](O)CS (racemic) [Dithiothreitol],effect on KSST activity,[1]; concentration up to 10 mM,did not affect the KSST activity
[Ba+2].[Cl-].[Cl-] [BaCl2],Sulfotransferase activity with added salt,[1],21.0 pmol/minute/mg protein
[Ca+2].[Cl-].[Cl-] [CaCl2],optimum concentration for KSST activity,[1],about 10 mM
same,Sulfotransferase activity with added salt,[1],26.2 pmol/minute/mg protein
same,effect on KSST activity,[1]; salts at 5 mM,most strongly enhanced the KSST activity
[Cl-].[Cl-].[Co+2] [CoCl2],Sulfotransferase activity with added salt,[1],24.6 pmol/minute/mg protein
[Cl][Cu][Cl] [CuCl2],Sulfotransferase activity with added salt,[1],10.0 pmol/minute/mg protein
O=S(=O)([O-])[O-].[Fe+2] [FeSO4],Sulfotransferase activity with added salt,[1],3.0 pmol/minute/mg protein
[Cl-].[Cl-].[Mg+2] [MgCl2],Sulfotransferase activity with added salt,[1],18.8 pmol/minute/mg protein
[Cl][Mn][Cl] [MnCl2],Sulfotransferase activity with added salt,[1],28.0 pmol/minute/mg protein
same,effect on KSST activity,[1]; salts at 5 mM,most strongly enhanced the KSST activity
[Cl][Ni][Cl] [NiCl2],Sulfotransferase activity with added salt,[1],10.0 pmol/minute/mg protein
"Nc1ncnc2c1ncn2[C@@H]1O[C@H](COP(=O)(O)OS(=O)(=O)O)[C@@H](OP(=O)(O)O)[C@H]1O [PAPS, 3'-phosphoadenosine 5'-phosphosulfate]",Km,[2],~0.2 µM
[Cl-].[Cl-].[Sr+2] [SrCl2],Sulfotransferase activity with added salt,[1],21.6 pmol/minute/mg protein
[Cl-].[Cl-].[Zn+2] [ZnCl2],Sulfotransferase activity with added salt,[1],1.5 pmol/minute/mg protein
Chondroitin,"Sulfotransferase activity, Crude extract",[3],0.016 pmol/minute/mg protein × 10^-2
same,"Sulfotransferase activity, Partially purified product",[4],0.03 pmol/minute/mg protein × 10^-2
same,sulfotransferase activity for this receptor relative to keratan sulfate sulfotransferase activity after the purification,[4],≤ 2%
Chondroitin sulfate A,"Sulfotransferase activity, Crude extract",[3],0.009 pmol/minute/mg protein × 10^-2
same,"Sulfotransferase activity, Partially purified product",[4],0.03 pmol/minute/mg protein × 10^-2
Chondroitin sulfate C,"Sulfotransferase activity, Crude extract",[3],0.005 pmol/minute/mg protein × 10^-2
same,"Sulfotransferase activity, Partially purified product",[4],0.02 pmol/minute/mg protein × 10^-2
Dermatan sulfate,increase of sulfotransferase activity with this sulfate group receptor,[5],no increase
same,"Sulfotransferase activity, Crude extract",[3],0.005 pmol/minute/mg protein × 10^-2
same,"Sulfotransferase activity, Partially purified product",[4],0.02 pmol/minute/mg protein × 10^-2
Keratan sulfate,"Sulfotransferase activity, Crude extract",[3],0.168 pmol/minute/mg protein × 10^-2
same,"Sulfotransferase activity, Partially purified product",[4],2.51 pmol/minute/mg protein × 10^-2
Protamine Chloride,Sulfotransferase activity with added salt,[1],8.8 pmol/minute/mg protein
"completely desulfated, N-sulfated heparin [CDSNS-heparin]",increase of sulfotransferase activity with this sulfate group receptor,[5],no increase
same,"Sulfotransferase activity, Crude extract",[3],0.109 pmol/minute/mg protein × 10^-2
same,"Sulfotransferase activity, Partially purified product",[4],0.05 pmol/minute/mg protein × 10^-2
same,sulfotransferase activity for this receptor relative to keratan sulfate sulfotransferase activity after the purification,[4],≤ 2%
heparan sulfate,increase of sulfotransferase activity with this sulfate group receptor,[5],no increase
partially purified KSST (KSGal6ST) (Homo sapiens) (protein) MQCSWKAVLLLALASIAIQYTAIRTFTAKSFHTCPGLAEAGLAERLCEESPTFAYNLSRKTHILILATTRSGSSFVGQLFNQHLDVFYLFEPLYHVQNTLIPRFTQGKSPADRRVMLGASRDLLRSLYDCDLYFLENYIKPPPVNHTTDRIFRRGASRVLCSRPVCDPPGPADLVLEEGDCVRKCGLLNLTVAAEACRERSHVAIKTVRVPEVNDLRALVEDPRLNLKVIQLVRDPRGILASRSETFRDTYRLWRLWYGTGRKPYNLDVTQLTTVCEDFSNSVSTGLMRPPWLKGKYMLVRYEDLARNPMKKTEEIYGFLGIPLDSHVARWIQNNTRGDPTLGKHKYGTVRNSAATAEKWRFRLSYDIVAFAQNACQQVLAQLGYKIAASEEELKNPSVSLVEERDFRPFS,Km,[6],0.2 µM
